US11446365B2, “Antimalarial enzyme conjugates, kits containing same, and methods of producing and using same” (priority 2017, dated 2022)

Tested on: P. yoelii parasites in erythrocytes
Assay: Selenomethionine prodrug, 24 hour culture of parasitized blood, damaged parasites by flow cytometry
Type: cell-based
Experimental: Blood was harvested and pooled from three mice infected with the murine Plasmodium parasite P. yoelii. Pooled blood parasitemia was 4.0%. Erythrocytes were extracted from the blood and washed to remove debris. The cells were then incubated with excess mCGL-AV for 3 hours. After incubation, the cells were then washed to remove excess protein and debris. Samples were then incubated under an oxygen reduced atmosphere mimicking the conditions of blood within the body for 24 hours with varying concentrations of selenomethionine. Damaged parasites were enumerated via flow cytometry. The number of damaged parasites is expressed as a percentage of the total number of parasites. Error bars represent the standard error of n=3 repeats of the assay for the same pooled blood.
To insure that healthy red blood cells were not damaged by such high concentrations of mCGL-AV, samples of treated and untreated blood were imaged using light microscopy to search for signs of hemolysis.

Q: Which results are given for `C[Se]CC[C@H](N)C(=O)O` [selenomethionine]?
A: impact on parasite viability, selenomethionine by itself (24 hours of culture, varying concentrations of selenomethionine, no fusion protein): no significant impact on parasite viability; damaged parasites with selenomethionine plus mCGL-AV (excess mCGL-AV 3 hours, wash, then 24 hours with varying concentrations of selenomethionine): boosted the cytotoxicity of the fusion protein
